Tested on: mouse liver microsomes, LC-MS/MS half-life
Assay: Inhibitors of Cruzain: Metabolic Stability Theory
Conditions: at 1 µM; stronger effect = higher value
Text: Chagas Disease is a neglected tropical disease that affects over 16 million people in Latin America. The cysteine protease cruzain is essential for the survival Trypanosoma cruzi, the parasitic agent responsible for Chagas disease. Potential intervention for T. cruzi includes the inhibition of cruzain. This bioassay will summarize the ongoing development of small molecule cruzain inhbitiors. Currently, a screen of ~200k compounds and through extensive follow-up work a probe was identified. To further characterize the probe, it was tested in in vitro ADME assays. Mouse liver microsomes are created through broken up endoplasmic reticulum from mouse liver. These liver microsomes contain many drug metabolizing enzymes, such as Cytochome P-450s and flavin-containing monooxygenases. Because metabolism is major way of drug clearance, this is an important result. NIH Chemical Genomics Center [NCGC] NIH Molecular Libraries Probe Production Centers Network [MLPCN] MLSCN Grant: DA024891-01 PI Name: Dr. Brian Shoichet; University of California, San Francisco
1uM of compound in incubated in mouse liver microsome; the reference compound is ketanserin. Compounds are incubated at 37 degrees C for different time periods: 0, 5, 15, 30, 45, and 60 minutes. Samples are analyzed with LC-MS/MS.

- half-life: 8 min
Compound: Cc1ccc(OCCn2c(CCNC(=O)C3CCCCC3)nc3ccccc32)cc1
